Reference: US20080312435A1, “Imine Compound” (TAISHO PHARMACEUTICAL CO., LTD., priority 2004, published 2008)

Row | Structure (SMILES) | melting point
1 | O=C(/N=c1\ccc(-c2ccccc2)cn1CC1CC1)c1cccc(C(F)(F)F)c1F | 115 to 116 °C
2 | C=CCn1c(-c2ccccc2)c(-c2ccccc2)s/c1=N\C(=O)c1ccccc1 | 141 to 143 °C
3 | Cc1c(C(C)(C)C)s/c(=N\C(=O)C(F)(F)C(F)F)n1CC1CC1 | 93 to 94 °C
4 | Cc1c(C(C)(C)C)s/c(=N\C(=O)c2cccc(C(N)=O)c2)n1CC1CC1 | 76 to 78 °C
5 | Cc1c(C(C)(C)C)s/c(=N\C(=O)c2cc(F)cc(C(F)(F)F)c2)n1CC1CC1 | 100 to 102 °C
6 | Cc1c(C(C)(C)C)s/c(=N\C(=O)c2cc(C(F)(F)F)ccc2N2CCOCC2)n1CC1CC1 | 86 to 87 °C
7 | Cc1c(C(C)(C)C)s/c(=N\C(=O)c2cncc(Br)c2)n1CC1CC1 | 152 to 154 °C
8 | Cc1c(C(C)C)s/c(=N\C(=O)c2cccc(C(F)(F)F)c2)n1CC1CC1 | 89 to 91 °C
9 | Cc1c(C(C)(C)C)s/c(=N\C(=O)c2cccnc2OC2C=CC=CC2)n1CC1CC1 (stereo not drawn) | 111 to 114 °C
10 | Cn1c(C(C)(C)C)c/c(=N\C=O)n1CC1CC1 | 122 to 124 °C
11 | O=C(/N=c1\sc2c(n1CC1CC1)CCCC2)c1cccc(C(F)(F)F)c1 | 159 to 160 °C
12 | CC[C@H](C(=O)/N=c1\sc(C)c(C)n1CC1CC1)c1ccccc1 (racemic) | 108 to 110 °C
13 | Cc1s/c(=N\C(=O)C(F)(F)C(F)(F)C(F)(F)F)n(CC2CC2)c1C | 92 to 94 °C
14 | CC(C)(C)c1nn(CC2CC2)/c(=N/C(=O)c2cc(C(F)(F)F)ccc2F)s1 | 47 to 49 °C
15 | Cc1cn(CC2CC2)/c(=N\C(=O)c2cccnc2)s1 | 115 to 117 °C
16 | Cn1c(C(F)(F)F)c(-c2ccccc2)/c(=N\C(=O)c2cccc(C(F)(F)F)c2F)n1C | 169.5 to 170 °C
17 | O=C(/N=c1\c(F)cc(F)cn1CC1CC1)c1cccc(C(F)(F)F)c1F | 69 to 71 °C
18 | O=C(/N=c1\ccccn1CC1CC1)C(F)(F)F | 90 to 91 °C
19 | O=C(/N=c1\ccc(C(F)(F)F)cn1CC1CC1)c1ccccc1C(F)(F)F | 93 to 93.5 °C
20 | Cn1c(C(C)(C)C)c/c(=N\S(=O)(=O)c2cccc(C(F)(F)F)c2)n1CC1CC1 | 121 to 122 °C
21 | Cc1c(C(C)(C)C)s/c(=N\C(=O)c2cccc(N3CCCC3)c2)n1CC1CC1 | 118 to 120 °C

Row | Structure (SMILES) | melting point
22 | CC(C)(C)c1nn(CC2CC2)/c(=N/C(=O)c2cc(C(F)(F)F)ccc2F)o1 | 61 to 63 °C
23 | Cc1c(C(C)(C)C)s/c(=N\C(=O)c2ccc(Cl)c(C(F)(F)F)c2)n1CC1CC1 | 122 to 124 °C
24 | CCn1c(C)c(C(C)(C)C)s/c1=N\C(=O)CC1CCCC1 | 149 to 150 °C
25 | Cc1c(C(C)(C)C)s/c(=N\C(=O)c2ccc(F)c(C(F)(F)F)c2)n1CC1CC1 | 123 to 124 °C
26 | CN(C)c1cccc(C(=O)/N=c2\sc3ccccc3n2CC2CC2)c1 | 156 to 158 °C
27 | O=C(/N=c1\ccccn1CCc1ccccc1)c1cccc(C(F)(F)F)c1F | 117 to 118 °C
28 | O=C(/N=c1\ccc(C(F)(F)F)cn1CC1CC1)c1cc(C(F)(F)F)ccc1F | 109 to 110 °C
29 | Cn1c(C(C)(C)C)c/c(=N\C(=S)Nc2ccc(F)cc2)n1CC1CC1 | 147.5 to 149.5 °C
30 | CCOC(=O)c1s/c(=N\C(=O)c2cccc(C(F)(F)F)c2)n(CC2CC2)c1C | 115 to 116 °C
31 | Cc1ccccc1C(=O)/N=c1\sc2ccccc2n1CC1CC1 | 115 to 117 °C
32 | O=C(/N=c1\ccccn1CC1CC1)c1cccc(C(F)(F)F)c1 | 105.5 to 106.5 °C
33 | CC(C)c1s/c(=N\C(=O)c2cncc(Br)c2)n(CC2CC2)c1C(F)(F)F | 139 to 141 °C
34 | Cc1c(C(C)(C)C)s/c(=N\C(=O)c2cccc(N3CCN(C)CC3)c2)n1CC1CC1 | 126 to 128 °C
35 | Cc1c(C(=O)NCCN2CCOCC2)s/c(=N\C(=O)c2cccc(C(F)(F)F)c2)n1CC1CC1 | 156 to 158 °C
36 | Cc1c(C(C)(C)C)s/c(=N\C(=O)c2ccc(C(=O)O)cc2)n1CC1CC1 | 196 to 197 °C
37 | CCN(CC)c1ccc(C(=O)/N=c2\sc(C(C)(C)C)c(C)n2CC2CC2)cc1 | 134 to 136 °C
38 | CCN(CC)c1cccc(C(=O)/N=c2\sc(C(C)(C)C)c(C)n2CC2CC2)c1 | 89 to 90 °C
39 | Cc1c(C(C)(C)C)s/c(=N\C(=O)c2ccc(Cl)cc2)n1CC1CC1 | 94 to 95 °C
40 | Cc1c(C(=O)N(C)C)s/c(=N\C(=O)c2cccc(C(F)(F)F)c2)n1CC1CC1 | 138 to 140 °C
41 | Cc1s/c(=N\C(=O)c2cccc(C(F)(F)F)c2)n(CC2CC2)c1-c1ccccc1 | 161 to 162 °C
42 | O=C(/N=c1\ccc(C(F)(F)F)cn1CC1CC1)c1cccc(C(F)(F)F)c1 | 84 to 85 °C

Next, values leading:

Row | melting point | Structure (SMILES)
43 | 144 to 145 °C | COCCn1/c(=N/C(=O)c2cccc(C(F)(F)F)c2F)cc(C)n1C
44 | 176 to 178 °C | Cc1c(C(C)(C)C)s/c(=N\C(=O)c2cccc(F)c2F)n1C
45 | 149 to 150 °C | Cc1c(C(C)(C)C)n(C)n(CC2CC2)/c1=N/C(=O)c1cccc(C(F)(F)F)c1F
46 | 76 to 78 °C | Cc1c(C(C)C)o/c(=N\C(=O)c2cc(C(F)(F)F)ccc2F)n1CC1CC1
47 | 146 to 148 °C | Cc1ccccc1C(=O)/N=c1/sc2cccc(Cl)c2n1CC1CC1
48 | 228 to 230 °C | Cc1ccc(C(=O)/N=c2\sc(C(C)(C)C)c(C)n2CC2CC2)cn1
49 | 146 to 147 °C | Cn1cccc/c1=N\C(=O)c1cccc(C(F)(F)F)c1F
50 | 88 to 89 °C | Cc1c(CC(C)(C)C(C)(C)C)s/c(=N\C(=O)c2cc(C(F)(F)F)ccc2F)n1CC1CC1
51 | 99 to 101 °C | COc1ccc(C(F)(F)F)cc1C(=O)/N=c1\cc(C(C)(C)C)n(C)n1CC1CC1
52 | 154 to 155 °C | Cc1s/c(=N\C(=O)c2ccc(Br)cc2F)n(CC2CC2)c1C
53 | 135 to 136 °C | Cc1ccc(C(=O)/N=c2\cc(C(C)(C)C)n(C)n2CC2CC2)cc1Cl
54 | 147 to 149 °C | Cc1c(C(C)(C)C)s/c(=N\C(=O)c2cccc(C(F)(F)F)c2)n1CCO
55 | 144 to 146 °C | Cc1s/c(=N\C(=O)c2ccc(F)cc2Br)n(CC2CC2)c1C
56 | 202 to 203 °C | Cc1c(C(C)(C)C)s/c(=N\C(=O)c2cccnc2)n1C.Cl
57 | 63 to 65 °C | CCn1c(C)c(C(C)(C)C)s/c1=N\C(=O)c1cc(C(F)(F)F)ccc1C
58 | 189 to 190 °C | Cc1c(C(C)(C)C)s/c(=N\C(=O)c2cccc(N(C)C)c2)n1C
59 | 131 to 133 °C | CCN(CC)c1ccc(C(F)(F)F)cc1C(=O)/N=c1\sc(C(C)(C)C)c(C)n1CC1CC1
60 | 133 to 134 °C | Cc1ccccc1C(=O)/N=c1/sc2cccc(C)c2n1CC1CC1
61 | 147 to 148 °C | Cc1cccc(C(=O)/N=c2\cc(C(C)(C)C)n(C)n2CC2CC2)c1I
62 | 158 to 160 °C | CCn1c(C)c(C(C)(C)C)s/c1=N\C(=O)c1cccc(C(F)(F)F)c1
63 | 64 to 66 °C | CCn1c(C)c(C(C)C)s/c1=N\C(=O)c1cccc(C(F)(F)F)c1F
64 | 138 to 140 °C | Cc1c(I)cccc1C(=O)/N=c1\cc(C(C)(C)C)n(C)n1CC1CC1
65 | 110 to 111 °C | Cc1s/c(=N\C(=O)c2cccc(C(F)(F)F)c2)n(C)c1C
66 | 250 to 252 °C | Cc1c(C(C)(C)C)s/c(=N\C(=O)c2cccc(C(=O)O)c2)n1C
67 | 117.5 to 118 °C | COc1ccc(C(=O)/N=c2\cc(C)cc(C)n2C)c(OC)c1
68 | 192 to 193 °C | COC(=O)c1cccc(C(=O)/N=c2\sc(C(C)(C)C)c(C)n2C)c1

Row | melting point | Structure (SMILES)
69 | 64 to 65 °C | COc1ccc(C(F)(F)F)cc1C(=O)/N=c1\cc(C(C)(C)C)on1CC1CC1
70 | 140 to 142 °C | Cc1c(C(C)(C)C)s/c(=N\C(=O)c2cccc(C(F)(F)F)c2)n1C
71 | 93 to 95 °C | CCn1cccc/c1=N\C(=O)c1cccc(C(F)(F)F)c1F
72 | 138 to 139 °C | Cc1c(Br)cccc1C(=O)/N=c1\cc(C(C)(C)C)n(C)n1CC1CC1
73 | 90 to 92 °C | CCn1cc(C)s/c1=N\C(=O)c1cccc(C(F)(F)F)c1F
74 | 48 to 50 °C | CCn1c(C)cs/c1=N\C(=O)c1cccc(C(F)(F)F)c1F
75 | 115 to 117 °C | CCc1s/c(=N\C(=O)c2cccc(C(F)(F)F)c2F)n(CC)c1C
76 | 118 to 120 °C | COc1ccc(C(F)(F)F)cc1C(=O)/N=c1\oc(C(C)C)c(C)n1CC1CC1
77 | 138 to 140 °C | COc1ccc(C(=O)/N=c2\sc(C(C)(C)C)c(C)n2C)c(OC)c1
78 | 88 to 90 °C | Cc1c/c(=N\C(=O)c2cccc(C(F)(F)F)c2F)n(CCOC(C)C)n1C
79 | 146 to 148 °C | Cc1ccccc1C(=O)/N=c1/sc2cc(F)cc(F)c2n1CC1CC1
80 | 89 to 91 °C | COc1ccc(OC)c(CC(=O)/N=c2\sc(C(C)(C)C)c(C)n2CC2CC2)c1
81 | 143 to 144 °C | Cc1s/c(=N\C(=O)c2ccc(F)cc2C(F)(F)F)n(CC2CC2)c1C
82 | 51 to 52 °C | CCCCn1cccc/c1=N\C(=O)c1cccc(C(F)(F)F)c1F
83 | 182 to 183 °C | Cc1s/c(=N\C(=O)c2cccc(C(F)(F)F)c2F)n(C)c1C
84 | 127 to 128 °C | COc1cc(C(=O)/N=c2\sc(C(C)(C)C)c(C)n2CC2CC2)cc(Cl)n1
85 | 106 to 107 °C | Cc1c(C(C)(C)C)s/c(=N\C(=O)c2ccccc2)n1CC1CC1
86 | 83 to 85 °C | Cn1c(C(C)(C)C)c/c(=N\C(=O)c2ccccc2C(F)(F)F)n1CC1CC1
87 | 97 to 98 °C | Cc1c/c(=N\C(=O)c2cccc(C(F)(F)F)c2F)n(CCC2CC2)n1C
88 | 89 to 91 °C | Cc1c(C(C)C)s/c(=N\C(=O)c2cccc(C(F)(F)F)c2F)n1C
89 | 143 to 145 °C | Cc1ccccc1C(=O)/N=c1\sc2cc(F)ccc2n1CC1CC1
90 | 63 to 65 °C | Cc1ccc(C(F)(F)F)cc1C(=O)/N=c1\sc(C(C)(C)C)nn1CC1CC1
91 | 64 to 66 °C | COCCn1c(C)c(C)s/c1=N\C(=O)c1cccc(C(F)(F)F)c1
92 | 153 to 154 °C | Cc1ccc(C(=O)/N=c2\cc(C(C)(C)C)n(C)n2CC2CC2)c(Br)c1
93 | 164 to 165 °C | Cn1c(C(C)(C)C)c/c(=N\C(=O)c2cc(Cl)ccc2Cl)n1CC1CC1
